Laboratory results as given in US20250361268A1, “NOVEL ANTI-INFLAMMATORY PEPTIDE AND USE THEREOF” (NOVACELL TECHNOLOGY INC., priority 2022, published 2025).
Peptide text beside a SMILES is read from it.

What was measured:
FPR2 = target: T1, FPR2 (Homo sapiens, UniProt P25090); experiment: Change in calcium activity by peptide (Fura-2) in RBL cells overexpressing FPR2; type: cell-based; conditions: calcium activity (Fura-2), graded per Table 3, read-out: EC50 for [Ca^2+] FPR2
T1 construct: expressed in transfected cells; host or cells: RBL cells (RBL-FPR2)
T1 sequence (P25090 1-351): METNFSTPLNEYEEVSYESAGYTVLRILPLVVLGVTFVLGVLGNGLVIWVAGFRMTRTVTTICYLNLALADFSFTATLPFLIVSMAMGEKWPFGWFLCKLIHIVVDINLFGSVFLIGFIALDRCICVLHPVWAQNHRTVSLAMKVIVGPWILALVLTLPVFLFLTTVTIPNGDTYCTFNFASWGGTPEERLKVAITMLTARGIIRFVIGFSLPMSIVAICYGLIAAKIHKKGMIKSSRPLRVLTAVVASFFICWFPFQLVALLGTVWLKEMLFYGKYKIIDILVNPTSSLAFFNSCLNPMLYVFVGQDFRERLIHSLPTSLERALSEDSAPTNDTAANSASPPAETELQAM
Summary of the method: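 Peptide-induced intracellular calcium change measured by Fura-2 fluorescence on a plate reader. Cells: RBL line overexpressing FPR2, dye-loaded 1 h at 37 °C then 30 min at RT in dark; peptides from 0.5 mM water/50% DMSO stocks, diluted in HBSS with 20 mM HEPES.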

FPR1 = target: T2, FPR1 (Homo sapiens, UniProt P21462); experiment: Change in calcium activity by peptide, FPR1 activation effect; type: cell-based; conditions: calcium activity (Fura-2), graded per Table 3, read-out: EC50 for [Ca^2+] FPR1
T2 sequence (P21462 1-350): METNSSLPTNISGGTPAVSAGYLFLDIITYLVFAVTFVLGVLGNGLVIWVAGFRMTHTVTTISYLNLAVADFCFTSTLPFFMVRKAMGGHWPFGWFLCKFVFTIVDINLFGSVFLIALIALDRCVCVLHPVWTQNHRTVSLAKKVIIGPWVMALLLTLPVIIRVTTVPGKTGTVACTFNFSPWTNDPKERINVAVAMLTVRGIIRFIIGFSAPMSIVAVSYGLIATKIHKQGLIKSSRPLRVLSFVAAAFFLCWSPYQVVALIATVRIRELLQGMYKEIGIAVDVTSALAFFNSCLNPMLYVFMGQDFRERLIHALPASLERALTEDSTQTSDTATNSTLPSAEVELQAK
Summary of the method: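 Calcium flux induced by peptide addition was monitored on a FlexStation 3 plate reader. Before this, cells seeded a day earlier (3×10^5/well) took up the Fura-2 dye for 1 h at 37 °C plus 30 min dark at room temperature.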

| EC50 (FPR2) [nM] | EC50 (FPR1) [nM] | Structure (SMILES) |
| --- | --- | --- |
| < 10 | > 10000 | CCCCCCCC(=O)N[C@@H](Cc1c[nH]cn1)C(=O)N[C@@H](CCSC)C(=O)N[C@@H](CCCCN)C(=O)N[C@@H](Cc1ccc(O)cc1)C(=O)N[C@@H](CCCCN)C(=O)N[C@H](C(=O)N[C@H](CCSC)C(N)=O)C(C)C [Peptide 24] (HELM PEPTIDE1{[CCCCCCCC(=O)[*:2]].H.M.K.Y.K.V.[dM].[am]}$$$$V2.0) |
| < 10 | 1000 to 10000 | CSCC[C@@H](NC(=O)[C@@H]1CCCN1C(=O)[C@H](CCCCN)NC(=O)[C@H](Cc1ccc(O)cc1)NC(=O)[C@H](CCCNC(=N)N)NC(=O)[C@H](Cc1c[nH]c2ccccc12)NC(C)=O)C(N)=O [Peptide 76] (HELM PEPTIDE1{[ac].W.R.Y.K.P.[dM].[am]}$$$$V2.0) |
| < 10 | > 10000 | CSCC[C@@H](NC(=O)[C@H](Cc1ccc(O)cc1)NC(=O)[C@@H](NC(=O)[C@H](Cc1ccc(O)cc1)NC(=O)[C@H](CCCNC(=N)N)NC(=O)[C@H](Cc1c[nH]c2ccccc12)NC(=O)[C@@H](N)CCCNC(=N)N)[C@@H](C)O)C(N)=O [Peptide 157] (HELM PEPTIDE1{R.W.R.Y.T.Y.[dM].[am]}$$$$V2.0) |
| < 10 | 101 to 1000 | CSCC[C@H](NC(=O)[C@H](CCCNC(=N)N)NC(C)=O)C(=O)N[C@@H](CCCNC(=N)N)C(=O)N[C@@H](Cc1ccc(O)cc1)C(=O)N[C@@H](Cc1c[nH]c2ccccc12)C(=O)N1CCC[C@H]1C(=O)N[C@H](CCSC)C(N)=O [Peptide 107] (HELM PEPTIDE1{[ac].R.M.R.Y.W.P.[dM].[am]}$$$$V2.0) |
| < 10 | > 10000 | CC[C@H](C)[C@H](N)C(=O)N[C@@H](CCCCN)C(=O)N[C@@H](Cc1ccc(O)cc1)C(=O)N[C@@H](CCCCN)C(=O)N[C@H](C(=O)N[C@H](CCSC)C(N)=O)C(C)C [Peptide 134] (HELM PEPTIDE1{I.K.Y.K.V.[dM].[am]}$$$$V2.0) |
| 11 to 100 | > 10000 | CSCC[C@@H](NC(=O)[C@H](Cc1ccc(O)cc1)NC(=O)[C@H](CC(N)=O)NC(=O)[C@H](Cc1ccc(O)cc1)NC(=O)[C@H](CCCNC(=N)N)NC(=O)[C@H](Cc1c[nH]c2ccccc12)NC(=O)[C@@H](N)CCCNC(=N)N)C(N)=O [Peptide 155] (HELM PEPTIDE1{R.W.R.Y.N.Y.[dM].[am]}$$$$V2.0) |
| < 10 | 1000 to 10000 | CSCC[C@@H](NC(=O)[C@@H]1CCCN1C(=O)[C@H](Cc1c[nH]c2ccccc12)NC(=O)[C@H](Cc1ccc(O)cc1)NC(=O)[C@H](CCCCN)NC(=O)[C@H](Cc1c[nH]cn1)NC(C)=O)C(N)=O [Peptide 150] (HELM PEPTIDE1{[ac].H.K.Y.W.P.[dM].[am]}$$$$V2.0) |
| < 10 | > 10000 | CCCC(=O)N[C@@H](CCCNC(=N)N)C(=O)N[C@@H](CCSC)C(=O)N[C@@H](CCCNC(=N)N)C(=O)N[C@@H](Cc1ccc(O)cc1)C(=O)N[C@@H](Cc1c[nH]c2ccccc12)C(=O)N[C@@H](Cc1ccc(O)cc1)C(=O)N[C@H](CCSC)C(N)=O [Peptide 83] (HELM PEPTIDE1{[CCCC(=O)[*:2]].R.M.R.Y.W.Y.[dM].[am]}$$$$V2.0) |
| < 10 | > 10000 | CCCC(=O)N1CCC[C@H]1C(=O)N[C@@H](CCCCN)C(=O)N[C@@H](Cc1ccc(O)cc1)C(=O)N[C@@H](CCCCN)C(=O)N[C@H](C(=O)N[C@H](CCSC)C(N)=O)C(C)C [Peptide 140] (HELM PEPTIDE1{[CCCC(=O)[*:2]].P.K.Y.K.V.[dM].[am]}$$$$V2.0) |
| 11 to 100 | 1000 to 10000 | CSCC[C@@H](NC(=O)[C@@H](NC(=O)[C@H](CC(C)C)NC(=O)[C@H](Cc1ccc(O)cc1)NC(=O)[C@H](CCCNC(=N)N)NC(=O)[C@H](Cc1c[nH]c2ccccc12)NC(=O)[C@@H](N)CCCNC(=N)N)C(C)C)C(N)=O [Peptide 158] (HELM PEPTIDE1{R.W.R.Y.L.V.[dM].[am]}$$$$V2.0) |
| < 10 | 101 to 1000 | CSCC[C@@H](NC(=O)[C@@H](NC(=O)[C@H](Cc1c[nH]c2ccccc12)NC(=O)[C@H](Cc1ccc(O)cc1)NC(=O)[C@H](CCCNC(=N)N)NC(=O)[C@H](Cc1c[nH]c2ccccc12)NC(C)=O)C(C)C)C(N)=O [Peptide 102] (HELM PEPTIDE1{[ac].W.R.Y.W.V.[dM].[am]}$$$$V2.0) |
| < 10 | > 10000 | CSCC[C@H](NC(=O)[C@H](CCCCN)NC(C)=O)C(=O)N[C@@H](CCCCN)C(=O)N[C@@H](Cc1ccc(O)cc1)C(=O)N[C@@H](CCCCN)C(=O)N1CCC[C@H]1C(=O)N[C@H](CCSC)C(N)=O [Peptide 67] (HELM PEPTIDE1{[ac].K.M.K.Y.K.P.[dM].[am]}$$$$V2.0) |
| < 10 | > 10000 | CSCC[C@H](N)C(=O)N[C@@H](CCCNC(=N)N)C(=O)N[C@@H](Cc1ccc(O)cc1)C(=O)N[C@@H](CCCCN)C(=O)N[C@@H](Cc1ccc(O)cc1)C(=O)N[C@H](CCSC)C(N)=O [Peptide 41] (HELM PEPTIDE1{M.R.Y.K.Y.[dM].[am]}$$$$V2.0) |
| 11 to 100 | > 10000 | CSCC[C@H](NC(C)=O)C(=O)N[C@@H](CCCCN)C(=O)N[C@@H](Cc1ccc(O)cc1)C(=O)N[C@@H](Cc1c[nH]c2ccccc12)C(=O)N[C@@H](Cc1ccc(O)cc1)C(=O)N[C@H](CCSC)C(N)=O [Peptide 90] (HELM PEPTIDE1{[ac].M.K.Y.W.Y.[dM].[am]}$$$$V2.0) |
| < 10 | > 10000 | CCCCCCCC(=O)N[C@@H](Cc1c[nH]cn1)C(=O)N[C@@H](CCCCN)C(=O)N[C@@H](Cc1ccc(O)cc1)C(=O)N[C@@H](CCCCN)C(=O)N1CCC[C@H]1C(=O)N[C@H](CCSC)C(N)=O [Peptide 149] (HELM PEPTIDE1{[CCCCCCCC(=O)[*:2]].H.K.Y.K.P.[dM].[am]}$$$$V2.0) |
| 11 to 100 | > 10000 | CSCC[C@H](NC(=O)[C@@H](N)CCCCN)C(=O)N[C@@H](CCCCN)C(=O)N[C@@H](Cc1ccc(O)cc1)C(=O)N[C@@H](CCCCN)C(=O)N1CCC[C@H]1C(=O)N[C@H](CCSC)C(N)=O [Peptide 66] (HELM PEPTIDE1{K.M.K.Y.K.P.[dM].[am]}$$$$V2.0) |
| 11 to 100 | > 10000 | CCCC(=O)N[C@@H](CCSC)C(=O)N[C@@H](CCCNC(=N)N)C(=O)N[C@@H](Cc1ccc(O)cc1)C(=O)N[C@@H](CCCCN)C(=O)N[C@@H](Cc1ccc(O)cc1)C(=O)N[C@H](CCSC)C(N)=O [Peptide 43] (HELM PEPTIDE1{[CCCC(=O)[*:2]].M.R.Y.K.Y.[dM].[am]}$$$$V2.0) |
| < 10 | 101 to 1000 | CSCC[C@@H](NC(=O)[C@@H]1CCCN1C(=O)[C@H](Cc1ccc(O)cc1)NC(=O)[C@H](Cc1ccc(O)cc1)NC(=O)[C@H](CCCNC(=N)N)NC(=O)[C@H](Cc1c[nH]c2ccccc12)NC(=O)[C@H](CCCNC(=N)N)NC(C)=O)C(N)=O [Peptide 121] (HELM PEPTIDE1{[ac].R.W.R.Y.Y.P.[dM].[am]}$$$$V2.0) |
| < 10 | 1000 to 10000 | CSCC[C@H](NC(=O)[C@@H](N)CCCNC(=N)N)C(=O)N[C@@H](CCCNC(=N)N)C(=O)N[C@@H](Cc1ccc(O)cc1)C(=O)N[C@@H](Cc1ccc(O)cc1)C(=O)N[C@H](C(=O)N[C@H](CCSC)C(N)=O)C(C)C [Peptide 97] (HELM PEPTIDE1{R.M.R.Y.Y.V.[dM].[am]}$$$$V2.0) |
| 11 to 100 | 1000 to 10000 | CSCC[C@@H](NC(=O)[C@@H](NC(=O)[C@H](CC(N)=O)NC(=O)[C@H](Cc1ccc(O)cc1)NC(=O)[C@H](CCCNC(=N)N)NC(=O)[C@H](Cc1c[nH]c2ccccc12)NC(=O)[C@@H](N)CCCNC(=N)N)C(C)C)C(N)=O [Peptide 159] (HELM PEPTIDE1{R.W.R.Y.N.V.[dM].[am]}$$$$V2.0) |
| < 10 | > 10000 | CC[C@H](C)[C@H](N)C(=O)N[C@@H](CCCCN)C(=O)N[C@@H](Cc1ccccc1)C(=O)N[C@@H](CCCCN)C(=O)N1CCC[C@H]1C(=O)N[C@H](CCSC)C(N)=O [Peptide 133] (HELM PEPTIDE1{I.K.F.K.P.[dM].[am]}$$$$V2.0) |
| < 10 | 1000 to 10000 | CSCC[C@H](NC(=O)[C@@H](N)Cc1c[nH]cn1)C(=O)N[C@@H](CCCNC(=N)N)C(=O)N[C@@H](Cc1ccc(O)cc1)C(=O)N[C@@H](CCCNC(=N)N)C(=O)N[C@H](C(=O)N[C@H](CCSC)C(N)=O)C(C)C [Peptide 31] (HELM PEPTIDE1{H.M.R.Y.R.V.[dM].[am]}$$$$V2.0) |
| < 10 | 101 to 1000 | CCCC(=O)N[C@@H](CCCNC(=N)N)C(=O)N[C@@H](CCSC)C(=O)N[C@@H](CCCNC(=N)N)C(=O)N[C@@H](Cc1ccc(O)cc1)C(=O)N[C@@H](Cc1c[nH]c2ccccc12)C(=O)N1CCC[C@H]1C(=O)N[C@H](CCSC)C(N)=O [Peptide 108] (HELM PEPTIDE1{[CCCC(=O)[*:2]].R.M.R.Y.W.P.[dM].[am]}$$$$V2.0) |
